How the values were obtained:
Assay type in all cases: in vivo
serum glucose = test: Determination of serum glucose (ortho-toluidine method) in Alloxan-induced Diabetes Mellitus; conditions: 20 days after Alloxan, before starting the treatment with the Silymarin and Carbopol compound
Description: (§1) The treatment of the Silymarin and Carbopol combined with Alloxan was done in two ways. In the first case, a dose of 200 mg/Kg of the Silymarin and Carbopol compound was administered orally at 6, 24 and 48 hours (two days) after the first dose. In the second case, in addition to the dose mentioned in the first case, the administration was prolonged every 24 hours after the first dose for five more days (seven days). In both cases, the dose of Alloxan was 150 mg/Kg, which was administered subcutaneously one hour after the first dose of the Silymarin and Carbopol compound.
The determination of blood glucose was carried out by the Baner method. This consisted in taking 50 μl of serum to which 3.0 ml of ortho-toluidine reagent were added which reacts with aldohexoses and forms […] and a Schiff base, the green color developed has a maximum absorption at 620 nm and is proportional to the quantity of glucose present.
In the case of the combined administration of the Silymarin and Carbopol compound with Alloxan, the determination of serum glucose was done before the administration of the drugs and at 3, 5, 15 and 30 days after the treatment. […]

pancreatic tissue = test: Histopathological analysis of the pancreatic tissue (HE staining); conditions: treatment with Alloxan only
Description: as §1
This analysis was done in transversal fragments of pancreas approximately 0.7 cm long corresponding to the head of the organ. Subsequently, by the paraffin embedding technique, 5 μm sections where then obtained, which were stained with the dyes hematoxylin and eosin (HE). This technique consists in: 1) dehydration of the tissue, which is done by passing the tissue through different concentration of alcohol (from 25 to 100%) and then to an alcohol-toluene, toluene-paraffin and paraffin mixture. Once the tissues are dehydrated, blocks are formed with paraffin. 2) Sectioning of the tissue. This is done in a microtome, which is adjusted to the right section thickness of 4 to 6 μm and is placed in a slide. 3) Staining of the sections. This was done with the dyes hematoxylin and eosin. […]

islets of Langerhans = test: Immunohistochemical analysis for insulin and glucagon in the islets of Langerhans by confocal microscopy; conditions: treatment with Alloxan only (FIG. 1)
Description: as §1
This analysis is carried out on sections of pancreatic tissue (corresponding to the head of the pancreas). Once the sections have been obtained (described in example 3) they are placed on a slide and the tissue is then deparaffinated and rehydrated. It is begun in pure xylol, with two changes of 10 minutes each. The samples are then passed to a mixture of ethanol-xylol for 10 minutes and afterward to alcohols of different percentages: 100, 90, 80 and 70% for five minutes each. […] At the end of this time, they are flushed with PBS and incubated in a mixture of secondary antibodies coupled with fluorochromes, fluorescein and rhodamine, for one hour at ambient temperature and they are then mounted in a specific medium to preserve the fluorescence. The samples are analyzed by confocal microscopy. […]

glutathione peroxidase = test: Activity of pancreatic antioxidant enzymes: glutathione peroxidase; conditions: pancreas; Alloxan (20 days after its administration)
Description: (§2) A determination was made of the pancreatic activity of the antioxidant enzymes: superoxide dismutase, glutathione peroxidase and catalase. To do such determination, the pancreas was weighed, it was homogenized with a phosphate buffer 50 mM, it was centrifuged at 3000 rpm, and the supernatant was separated. The activities of the aforementioned enzymes was determined in this.
Glutathione peroxidase.—This quantification was done by the method of Prasad et al. (1992). This enzyme catalyzes the breakdown of H2O2 by the NADPH. Its activity is measured by the velocity of absorbance change during the conversion of NADPH to NADP^+ and this may be spectrophotometrically registered at […].

superoxide dismutase = test: Activity of pancreatic antioxidant enzymes: superoxide dismutase; conditions: pancreas; Alloxan (20 days after its administration)
Description: as §2
Superoxide dismutase.—This quantification was done by the method of Prasad et al. (1992). Superoxide ions are formed by xanthine and xanthine oxidase. These ions react with the tetrazolium blue and they form a colour compound that can be spectrophotometrically quantified at 560 nm. A unit of superoxide dismutase can inhibit the formation of this compound by 50%.

catalase = test: Activity of pancreatic antioxidant enzymes: catalase; conditions: pancreas; Alloxan (20 days after its administration)
Description: as §2
Catalase.—This quantification was carried out by the Aebi method (1995). This enzyme catalyzes the breakdown of H2O2 and the decomposition velocity of the oxygenated water is measured spectrophotometrically at 240 nm.

## O=C1NC(=O)C(=O)C(=O)N1 [Alloxan]
Serum glucose
  serum glucose concentration above the normal value: approximately 400%
Pancreatic tissue
  histopathology of the pancreatic tissue: cellular disorganization with loss of the islets of Langerhans
Islets of Langerhans
  pancreatic islet, insulin and glucagon immunostaining: destruction occurred of the pancreatic islet
Glutathione peroxidase
  Enzymatic activity Glutathione Peroxidase: 0.016 ± .002 μM NADPH/min/mg prot
Superoxide dismutase
  Enzymatic activity Superoxide Dismutase: 4.3 ± 0.02 U/mg protein.
catalase
  Enzymatic activity Catalase: 0.01 ± 0.002 k/sec/mg of protein
